PubChem BioAssay AID2305 (GlaxoSmithKline (GSK), 2010)

Each compound was assayed on P. falciparum 3D7 growth, pLDH absorbance (assay: blood-stage malaria parasite growth potency – strain 3D7, dose response (AID 2305)).

Compound	IC50 [nM]
CN1CCN(c2ccc(Nc3nccc(-c4c(-c5cccc(NC(=O)c6c(F)cccc6F)c5)nn5ccccc45)n3)cc2)CC1	110
NCc1ccc(CNCc2cccc(-c3ccc(-c4nc5ccccc5[nH]4)cc3)c2)cc1	720
COc1cccc(C(=O)Nc2sc3c(c2C(N)=O)CCCC3)c1OC	930
CC(=O)C1(c2ccccc2)CCN(CCC2(c3ccc(Cl)c(Cl)c3)CN(C(=O)C3CCCC3)CCO2)CC1 (stereo not drawn)	800
COc1ccccc1CCNc1nc(C)cc(N[C@@H](CC(C)C)C(=O)Nc2ccccc2)n1	1280
COc1ccc2c(c1)nc(CN=C(N)N)n2Cc1ccc(Cl)cc1	360
O=C(NCCN1CCC(c2ccncc2)CC1)c1ccc(Nc2nccc(Nc3ccc(Oc4ccccc4)cc3)n2)cc1	720
O=C(Cn1c(CCc2cccc(F)c2F)cc(=O)c2ccccc21)N(Cc1ccc(-c2ccc(C(F)(F)F)cc2)cc1)C1CCN(CCN2CCOCC2)CC1	720
Cc1ccc(Cn2cnc3cc(C(=O)Nc4ccc(-c5cccc(CN(C)C)c5)cc4)ccc3c2=O)o1	630
CCCN1CCCN(Cc2cccc(NC(=O)c3ccc(-c4ccccc4)cc3)c2)CC1	1110
O=C(Nc1ccc(-c2cccc(-c3nc4ccccc4[nH]3)c2)cc1)Nc1ccc2c(c1)OCO2	250
COc1ccc(CNCc2ccccc2)cc1-c1ccc(OC)c(S(=O)(=O)NCCN2CCCC2)c1	830
O=C(C=Cc1ccc(Cl)c(Cl)c1)NCCCCCN1CCCC(CCCNS(=O)(=O)c2ccc(Br)cc2)C1 (stereo not drawn)	960
CC1(C)N=C(N)NC(Nc2ccc(F)c(F)c2)=N1	50
COc1ccc2cc(C(C)NC3CCN(c4cccc(NC(=O)c5ccncc5)c4)CC3)ccc2c1 (stereo not drawn)	1550
CCc1c(CCNCCCCCCNCCc2ccc(Br)cc2)ccc(OC)c1OC	230
Cc1noc(C)c1-c1ccc2c(Nc3cccc4c3-c3ccccc3C4=O)c(C(=O)NCc3ccccc3I)cnc2c1	630
Cc1cc(Nc2cccc(C(F)(F)F)c2)nc2ccc(NC(=O)c3ccc(=O)[nH]c3)cc12	490
N#CNC(=NCCCSc1csc(N=C(N)N)n1)NCCCCCCCCN=C(NC#N)NCCSCc1csc(N=C(N)N)n1	840
CCCCN(CCCC)CCCCNc1c2ccc(Cl)cc2nc2ccc(OC)cc12	180
c1cc(CN2CCN(c3ccncc3)CC2)cc(-c2cccc(-c3nc4ccccc4[nH]3)c2)c1	130
CC1CCCN1Cc1cccc(-c2ccc(C(=O)NCCOc3ccccc3)s2)c1 (stereo not drawn)	930
COc1cccc(C2CCN(CCN3CCC(NC(=O)c4ccc(-c5ccc(C#N)cc5)cc4)CC3)CC2)c1	700
O=C(/C=C/c1ccc(Cl)cc1)NCCCCCN1CCN(C(=O)Nc2ccc(Cl)c(C(F)(F)F)c2)CC1	920
Clc1ccc(NC(=NCCCCCCCN=C(Nc2ccc(Cl)cc2)Nc2ccc(Cl)cc2)Nc2ccc(Cl)cc2)cc1	320

Compound	IC50 [nM]
CC(CN1CCN(C)CC1)C(=O)Nc1cccc(-c2ccc(-c3nc4ccccc4[nH]3)s2)c1 (stereo not drawn)	630
CS(=O)(=O)NCCCNCc1ccc(-c2ccc(-c3nc4ccc(F)cc4[nH]3)s2)cc1	810
CCCN=CNc1cc(-c2csc(N=C(N)N)n2)cc([N+](=O)[O-])c1	1740
O=C(Nc1ccc(-c2ccc(-c3nc4ccccc4[nH]3)s2)cc1)Nc1ccc(Cl)c(Cl)c1	160
CCOc1ccc(N2C(N)=NC(N)=NC2(C)C)cc1	260
CN(Cc1ccc(C#N)cc1)C1CCN(c2cc(NC(=O)c3ccc(F)cc3)ccn2)CC1	1430
COc1ccc(CCNCCCCCNCCc2ccc(Cl)cc2)cc1OC	740
Cc1cc2c(cc1C(F)(F)F)N(C(=O)Nc1ccc(C(=O)NCCN3CCCC3)cc1)CC2	320
COc1nc(N)ncc1C(=O)NC1CN2CCC1CC2 (stereo not drawn)	240
COc1ccc(N(c2nc(-c3cc(Cl)ccc3Cl)cs2)C2CCNCC2)cc1	1090
O=C(Nc1ccc(Cl)cc1)c1cc(Cl)ccc1NC(=O)C1CCc2ccccc2O1 (stereo not drawn)	1790
CC(=O)Oc1c(Cl)c(C)nc(C)c1-c1ccc(Oc2ccc(OC(F)(F)F)cc2)cc1	100
O=C(Cn1c(SCc2cccc(F)c2F)cc(=O)c2ccccc21)N(Cc1ccc(-c2ccc(C(F)(F)F)cc2)cc1)C1CCN(CCO)CC1	1250
CC(C)(C)c1nn(-c2ccccc2)c2[nH]c(=O)c(CNCc3ccccc3)cc12	1050
CC(C)(CNC(=O)C1CCN(CC2CCCCC2)CC1)c1nc(-c2ccc(Cl)c(O)c2)c(-c2ccncc2)[nH]1	890
CN1CCN(CCCNc2ncc3c(-c4ccc(NC(=O)Nc5cc(C(F)(F)F)ccc5F)c(F)c4)nn(C)c3n2)CC1	860
Cc1noc(-c2ccc3c(c2)CCN(CCC2CCC(NC(=O)/C=C/c4ccc(F)cc4)CC2)CC3)n1 (stereo not drawn)	1030
CN1CCC(COC(=O)C(O)(c2ccccc2)c2ccccc2)C1 (stereo not drawn)	1000
CC1(C)N=C(N)N=C(N)N1OCCCNC(=O)c1ccc(C(=O)NCCCON2C(N)=NC(N)=NC2(C)C)cc1	20
CC(C)c1ccc(NC(=O)Nc2ccc(CCNCCCc3ccccc3)cc2)cc1	760
CN(C)c1ccc(Br)c(Br)c1	970
c1ccc2sc(Sc3ncnc4sccc34)nc2c1	730
c1ccc2c(c1)CN(CC1CCOCC1)CC1(CCN(Cc3c[nH]c4cnccc34)CC1)O2	1550
FC(F)(F)c1ccc2nc(-c3ccc(-c4ccc(CN5CCN(c6cnccn6)CC5)cc4)s3)[nH]c2c1	650
Cc1cc(N[C@@H](CC(C)C)C(=O)NC2CCCC2)nc(NCC2CCCCC2)n1	860

Compound	IC50 [nM]
Cc1cc(N2CCOCC2)nc(Nc2ccc(NC(=O)Nc3ccc(F)cc3)cc2)n1	490
OC(CNC12CC3CC(CC(C3)C1)C2)c1cccc(C(F)(F)F)c1 (stereo not drawn)	300
COc1ccc(-n2ccnc2SCC(=O)Nc2cc(C(F)(F)F)ccc2Cl)c(OC)c1	40
Cc1nc(N/C=C/c2ccc(O)cc2)cc(N2CCCC2)n1	1070
Cc1cccc(C(=O)Nc2ccnc(N3CCCN(Cc4cccc(O)c4)CC3)c2)c1	1210
O=C1C(c2ccccc2)=C(Nc2ccc(OC(F)(F)F)cc2)c2ccccc21	110
Fc1ccccc1-c1cc(Nc2ccncc2)nc(-c2cccnc2)n1	260
O=C(Nc1nc2cc(S(=O)(=O)NCCc3cccc(F)c3)ccc2n1CCCn1ccnc1)c1ccc(Cl)cc1	1270
CN1CCN(CCCN(Cc2cccc(-c3cccc(CNCc4ccc5c(c4)OCO5)c3)c2)C(=O)CCC2CCCC2)CC1	950
CS(=O)(=O)Nc1cccc(-c2cnc3[nH]cc(-c4ccc(CCC(=O)O)cc4)c3c2)c1	1060
CCC(C)(C)c1ccc(N2C(N)=NC(N)=NC2(C)C)cc1	10
COc1cccc2c(Oc3ccccc3C)ccnc12	1230
Cc1ccc2c(NC(=O)Nc3ccc(N(C)C)cc3)cc(C)nc2c1	820
C(=C(c1cccs1)c1cccs1)c1ccc(CNC2CCN(Cc3ccccc3)CC2)cc1	160
O=C(/C=C/c1ccc(Cl)c(Cl)c1)N1CCC(CN2CCC(c3c[nH]c4cnccc34)CC2)CC1	220
C=CC(=O)Nc1ccc(Cl)cc1C(O)c1ccccc1 (stereo not drawn)	180
CC(C)(CNCc1ccccc1)c1nc(-c2ccc(Cl)c(O)c2)c(-c2ccncc2)[nH]1	540
CC(Cc1ccc(NC(=O)COc2ccc(CC(C)NCCc3cccc(Cl)c3)cc2)cc1)NCCc1cccc(Cl)c1 (stereo not drawn)	80
CSCCCN1CCC(O)(c2ccc3oc(C(=O)Nc4ccc5sc(C)nc5c4)cc3c2)CC1	1070
COc1ccc(NCCCNc2ccnc3ccccc23)cc1	970
Cc1cc(N2CCN(C3CCCCC3)CC2)nc2cccc(O)c12	700
CCN1CCN(c2cc(C)c3cc(NC(=O)c4cc(OC)cc(OC)c4)ccc3n2)CC1	160
CC(=O)N/N=C/[C@H](CCc1ccccc1)NC(=O)[C@H](CC(C)C)NC(=O)c1ccc(OCCN2CCOCC2)cc1	220
CN(C)CCCOC(=O)c1cc2cc(-c3ccccc3)ccc2n1S(=O)(=O)Cc1ccccc1	360
CCn1c(Sc2ccc([N+](=O)[O-])c(C#N)c2)nnc1-c1cccc(Cl)c1	870

Compound	IC50 [nM]
O=C(NC1CCC(N2CCN(c3cccc(C(F)(F)F)c3)CC2)CC1)c1cc2ccccc2[nH]1 (stereo not drawn)	720
O=C(Nc1ccccc1)N(Cc1ccc(-c2cccc(CNC3CCCC3)c2)cc1)C1CCN(Cc2ccccc2)CC1	430
Cc1cccc2[nH]c(-c3ccc(-c4cccc(NC(=O)COc5ccccc5C(N)=O)c4)s3)nc12	730
CCOC(=O)c1ccc(COc2ccc(C)nc2)cc1	540
Cc1cc(C)n(-c2nc(Nc3cccc(C(F)(F)F)c3)nc(-n3nc(C)cc3C)n2)n1	360
CN(CCN(C)C(=O)NCc1ccccc1)C(=O)NCc1ccccc1	930
CN(Cc1cccc(O)c1)C1CCCN(c2cc(NC(=O)c3ccc(F)cc3)ccn2)C1 (stereo not drawn)	1070
CC(CCCC(=O)Nc1ccc(CC(C)NCCc2cccc(Cl)c2)cc1)NCCc1cccc(Cl)c1 (stereo not drawn)	620
CN(C)CCCNc1ncnc2c1[nH]c1ccc(Cl)cc12	280
O=C(Nc1cc(Cl)ccc1O)c1cc(-c2ccccc2O)no1	1090
COc1cc(Cc2cnc(N)nc2N)cc(OC)c1OCCCCCN1C(=O)c2ccccc2C1=O	620
COc1ccc(C2CCN(CCCCNC(=O)c3ccc(NC(=O)c4ccc(Cl)cc4)cc3)CC2)c(C)c1	750
Cc1cccc(NC(=O)c2ccc(C(=O)NC3CCN(CC4CCCCC4)CC3)cc2)c1	810
Cc1ccc(CNC(=O)c2ccc(CN3CCCN(Cc4ccsc4)CC3)cc2)cc1	870
O=c1[nH]c2ccc(Nc3nccc(NCCc4ccccc4)n3)cc2[nH]1	1210
CCc1ccccc1N1CCN(CCCCNC(=O)c2ccc(NC(=O)c3ccc(Cl)cc3)cc2)CC1	960
O=C(Nc1ccc(C(F)(F)F)cc1)Nc1ccccc1N1CCNCC1	500
C[C@H](Cc1ccc(OCCCCCCOc2ccccc2)cc1)NC[C@H](O)c1cccc(Cl)c1	70
Cc1cccnc1CNc1nccc2c(C)c(C)[nH]c12	850
COc1cc2nc(NCCCO)nc(Nc3ccc(Oc4ccccc4)cc3)c2cc1OC	140
COc1ccc2nccc([C@@H](O)CN3CCC(NCc4ccc5nc[nH]c(=O)c5c4)CC3)c2c1	920
CC(=O)N(Cc1ccccc1-c1cccc(CNCCc2ccccc2)c1)C1CCN(Cc2ccccc2)CC1	1100
CCNc1cc(C(=O)N[C@@H](Cc2ccccc2)[C@H](O)CNC(CC)c2cccc(Cl)c2)cc(N2CCCCS2(=O)=O)c1 (stereo partly drawn)	50
